Reference: patent publication US6552060B1, “Asymmetric disulfides and methods of using same” (Prolx Pharmaceuticals, Inc., priority 1997, dated 2003)
pIC50, pKi: −log10 of the molar value. Where “and” joins values, the source holds several entries; their conditions need not be identical. Equal entries are not always repeated. Entries after “also recorded” stand apart in the source; their conditions may differ. Where two headings read alike, the source gives them in different places. Marks after values point to notes of the source that are not given here.

What was measured:
TR/Trx = molecular target: T1, TR/Trx (Homo sapiens, UniProt Q16881); assay: Thioredoxin dependent reduction of insulin by human thioredoxin reductase and NADPH (IC50 TR/Trx, 96 well); assay type: biochemical
T1 sequence (Q16881 1-499 isoform Q16881-5): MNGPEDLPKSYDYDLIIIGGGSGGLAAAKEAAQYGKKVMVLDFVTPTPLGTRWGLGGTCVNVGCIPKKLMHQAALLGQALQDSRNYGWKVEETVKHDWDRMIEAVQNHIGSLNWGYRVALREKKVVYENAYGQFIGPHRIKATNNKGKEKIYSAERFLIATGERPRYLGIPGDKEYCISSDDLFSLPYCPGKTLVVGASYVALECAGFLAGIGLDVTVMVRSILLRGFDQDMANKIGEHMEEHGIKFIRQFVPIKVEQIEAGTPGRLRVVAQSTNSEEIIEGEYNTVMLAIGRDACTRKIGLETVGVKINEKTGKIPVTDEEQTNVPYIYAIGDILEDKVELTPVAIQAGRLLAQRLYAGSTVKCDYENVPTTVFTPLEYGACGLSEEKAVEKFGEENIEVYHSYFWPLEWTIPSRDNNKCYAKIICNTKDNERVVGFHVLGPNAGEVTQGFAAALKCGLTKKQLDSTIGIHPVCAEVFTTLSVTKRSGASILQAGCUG
Text: When referring to the particular system being analyzed IC50 is typically followed by an abbreviation referring to that system (i.e., IC50 TR/Trx for the above described thioredoxin redox system which is comprised of thioredoxin reductase and thioredoxin).
A second plate was used for the assessment of biological activity or as a biological screen. Aliquots of disulfides dissolved in DMSO, were be transferred into 96 well plates. The assay to assess their ability to inhibit thioredoxin reductase measures the thioredoxin dependent reduction of insulin by human thioredoxin reductase and NADPH. The effects of the disulfides on the reduction of Trx by TR were measured spectrophotometrically by following the reduction of NADPH at 339 nm with insulin as the final electron acceptor in a buffered mixture of TR, Trx, NADPH and insulin.

[1] = tested on: EMT6 mouse mammary tumor cells; assay: Cytotoxicity against EMT6 cells in culture (MTT); conditions: read-out: Disulfide Cytotoxicity (IC50), Table 5, 48 h exposure
in vitro = conditions: mouse
thioredoxin = molecular target: T2, thioredoxin (Homo sapiens, UniProt P10599); assay: Direct reaction between thioredoxin and disulfides, release of 2-mercaptoimidazole at 252 nm; assay type: biochemical; conditions: for initial rate for reaction between thioredoxin and disulfide: thioredoxin 2 μM, disulfide 200 μM, pH 7.4, room temperature
T2 construct: made in house; host or cells: E. coli
T2 sequence (P10599 1-105): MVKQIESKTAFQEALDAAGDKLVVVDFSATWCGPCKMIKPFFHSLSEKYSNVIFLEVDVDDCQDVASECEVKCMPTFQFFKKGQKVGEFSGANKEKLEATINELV
Description: The effects of the assymetric disulfides of Table I on the reduction of thioredoxin and C73S by thioredoxin reductase was measured spectrophotometrically by following the reduction of NADPH at 339 nm. […] In some studies the disulfides at 3.5 μM were preincubated for up to 24 hr at room temperature in air with 0.7 μM thioredoxin or C73S in 100 μM HEPES buffer, pH 7.6, and 5 mM EDTA, before measuring the reduction of the thioredoxin or C73S by thioredoxin reductase with 1 mg/ml bovine insulin as the final electron acceptor. The ability of the disulfides to act as substrates for glutathione reductase was measured by following the reduction of NADPH using an incubation mixture containing 0.15 μg/ml glutathione reductase, 140 μM NADPH, 100 mM HEPES buffer, pH 7.6, 5 mM EDTA and the disulfides at 500 μM. The ability of the disulfides to act as inhibitors of glutathione reductase was measured using oxidized glutathione, 50 μM, as the final electron acceptor. In both cases the reaction was initiated by the addition of NADPH. Thioredoxin or C32S/C35S, 2 μM, in 0.1 M sodium phosphate buffer, pH 7.4, was reacted with the disulfides at a concentration of 200 μM at room temperature. This direct reaction between thioredoxin and the disulfides was followed spectrophotometrically as the increase in absorbance at 252 nm due to release of 2-mercaptoimidazole. Initial reaction rates were measured in triplicate.
Due to the fact that the disulfides inhibited thioredoxin-dependent cell growth at concentrations below those required to inhibit thioredoxin reductase, a direct effect of the disulfides on thioredoxin was looked for. The initial reaction between the disulfides and thioredoxin was measured spectrophotometrically (FIGS. 2A and 2B). […] This is the order of reactivity which be predicted from the steric and electronic nature of the disulfides thioalkylating groups.

[2] = tested on: MCF-7 breast cancer cells in scid mice; assay: Activity against MCF-7 breast cancer cells in scid mice; assay type: in vivo; conditions: for T/C %: tumor volume treated versus control at day 28
Text: This is shown below in Table II.

[3] = molecular target: T3, Human placental thioredoxin reductase (Homo sapiens, UniProt Q16881); assay: NADPH oxidation by thioredoxin reductase with the disulfide as substrate, or with thioredoxin and insulin as final electron acceptor and the disulfide as inhibitor; assay type: biochemical; conditions: for Type: behaviour towards thioredoxin reductase: substrate, inhibitor or non-reactive
T3 sequence (Q16881 1-499 isoform Q16881-5): T1 sequence (Q16881 1-499 isoform Q16881-5)
Description: The thioredoxin was stored at −20° C. with 5 mM dithiothreitol which was removed before use with a desalting column (PD10, Pharmacia, Uppsala, Sweden).
Asymmetrical 2-imidazolyl disulfides which were used as a basis for further development and identified below in Table 1. In Table I, NADPH oxidation by thioredoxin reductase was measured spectrophotometrically as described with either the disulfide as the electron acceptor (substrate) or with thioredoxin and insulin as the final electron acceptor and the disulfide as inhibitors. The reactions were initiated by the addition of NADPH. Km and Ki values were calculated from Lineweaver-Burk plots of the data.
The compounds of Table 1 were synthesized by a method described previously and recrystallized prior to use. Stock solutions of the disulfides were prepared at 10 mM in ethanol and diluted in aqueous media just prior to use. N-ethylmaleimide (NEM), diamide, and DTT were obtained from Sigma Chemical Co. (St. Louis, Mo.). All other chemicals used were of reagent grade. […]

HL60 cells = assay: Induction of apoptosis in HL60 cells; assay type: cell-based, human; conditions: within 8 h of exposure, same concentration
[4] = Table 3, read-out: IC50 TR/Trx (converted)
[5] = Table 4, read-out: Disulfide inhibition of TR/Trx (IC50 TR/Trx) (converted)

| Compound | Disulfide inhibition of TR/Trx (IC50 TR/Trx) (TR/Trx; Table 4) [µg/mL] | IC50 at 48 h (in vitro) [µM] | pIC50 [1] | other results |
| --- | --- | --- | --- | --- |
| CCSSc1nccn1C [Compound A-2] | 80 |  | 4.82 |  |
| CCCSSc1ncc[nH]1 [Compound B-1] | 7 |  | 4.68 |  |
| CCCCSSc1nccn1C [Compound C-2] | 147 |  | 4.59 |  |
| CC(C)SSc1ncc[nH]1 [Compound E-1] | 7 |  | 4.62 |  |
| CC(C)SSc1nccn1C [Compound E-2] | 100 |  | 4.48 |  |
| Cc1nnc(SSC(C)C)s1 [Compound E-3] | 100 |  | < 3.74 |  |
| CC(C)SSc1ncccc1C(=O)O [Compound E-23] | 40 |  | < 3.74 |  |
| Cc1ccnc(SSC(C)C)n1 [Compound E-24] | 60 |  | < 3.74 |  |
| CCC(C)SSc1nc2ccccc2s1 (stereo not drawn) [Compound F-11] |  |  |  | pIC50 (in vitro): 4.48 |
| CCC(C)SSC(C)c1ccccc1 (stereo not drawn) [Compound F-22] | 201 |  | < 3.74 |  |
| CCCSSC1CCCC1 [Compound F-27] |  | 51 |  | IC50 (TR/Trx; [5]): 289 µM |
| CC(C)CSSc1ncc[nH]1 [Compound G-1] | 8 |  | 4.55 |  |
| CC(SSc1nccs1)c1ccccc1 (stereo not drawn) [Compound J-1] |  | 28 |  | IC50 (TR/Trx; [4]): 15.8 µM |
| CC(O)C(C)SSc1ccccc1 (stereo not drawn) [Compound M-13] |  | 46 |  |  |
| CC(O)C(C)SSc1nc2ccccc2o1 (stereo not drawn) [Compound M-29] |  | 29 |  |  |
| CC1CCC(C(C)(C)SSCCC(=O)O)C(=O)C1 (stereo not drawn) [Compound N-26] |  |  | ≤ 3.74 |  |
| c1ccc(CSSc2ncc[nH]2)cc1 [DLK-36, benzyl 2-imidazolyl disulfide] |  | 22 |  | initial rate for reaction between thioredoxin and disulfide (thioredoxin): 1.3e-06 M/s; Toxicity dead/injected ([2]; 25 mg/kg/day i.p. for 14 days): 1/8; T/C % ([2]; 25 mg/kg/day i.p. for 14 days): 100.7%; Toxicity dead/injected ([2]; 40 mg/kg/day i.p. for 14 days): 0/6; T/C % ([2]; 40 mg/kg/day i.p. for 14 days): 23.7^c %; tumor inhibition ([2]; MCF-7 tumor system): 65%; Type [3]: competitive inhibitors; also recorded: inhibitor; pKi ([3]; competitive inhibitors of the reduction of thioredoxin by thioredoxin reductase): 4.51 |
| CC(C)(C)SSc1ncc[nH]1 [IX-2, t-butyl 2-imidazolyl disulfide] |  |  |  | rate of thiol/disulfide exchange reaction with thioredoxin relative to III-2 (thioredoxin): three logs slower; initial rate for reaction between thioredoxin and disulfide (thioredoxin; unit not given, in M/s): 3.0×10^−9; Type [3]: non-reactive; apoptosis of HL60 cells (HL60 cells): does not cause apoptosis |
| CCSSc1ncc[nH]1 [VI-2, ethyl 2-imidazolyl disulfide] |  | 8 |  | IC50 (TR/Trx; [5]): 25 µM; Toxicity dead/injected ([2]; 4 mg/kg/day i.p. for 14 days): 1/8; T/C % ([2]; 4 mg/kg/day i.p. for 14 days): 83.0%; Toxicity dead/injected ([2]; 6 mg/kg/day i.p. for 14 days): 0/8; T/C % ([2]; 6 mg/kg/day i.p. for 14 days): 65.8%; Toxicity dead/injected ([2]; 12 mg/kg/day i.p. for 14 days): 4/8; T/C % ([2]; 12 mg/kg/day i.p. for 14 days): 64.6%; Type [3]: substrate; Km ([3]; disulfide as substrate for reduction by thioredoxin reductase, Lineweaver-Burk): 48 µM and 48.1 µM |

Now from value to compound, other results behind:

| Disulfide inhibition of TR/Trx (IC50 TR/Trx) (TR/Trx; Table 4) [µg/mL] | IC50 at 48 h (in vitro) [µM] | Compound | pIC50 [1] | other results |
| --- | --- | --- | --- | --- |
| 51 |  | CCC(C)SSc1nccn1C (stereo not drawn) [Compound F-2] | 4.37 |  |
|  | 7 | CCC(C)SSc1nnc(C)s1 (stereo not drawn) [Compound F-3] |  | IC50 (TR/Trx; [4]): 68.1 µM |
|  | 36 | CCC(C)SSc1nnc(S)s1 (stereo not drawn) [Compound F-4] |  | IC50 (TR/Trx; [4]): 117 µM |
|  | 34 | CCC(C)SSc1nccs1 (stereo not drawn) [Compound F-5] |  |  |
| 7 |  | CCC(C)SSc1nc2ccccc2[nH]1 (stereo not drawn) [Compound F-8] | 4.14 |  |
| 47 |  | CCC(C)SSc1nc2cc([N+](=O)[O-])ccc2[nH]1 (stereo not drawn) [Compound F-10] | 4.44 |  |
| 22 |  | CCC(C)SSc1nc2ccccc2o1 (stereo not drawn) [Compound F-12] | < 3.74 |  |
| >189 |  | CCC(C)SSCc1ccccc1 (stereo not drawn) [Compound F-19] | 3.97 |  |
| 61 |  | CCC(C)SSCc1cccc(OC)c1 (stereo not drawn) [Compound F-20] | < 3.74 |  |
| 81 |  | CCC(C)SSc1ncccc1C(=O)O (stereo not drawn) [Compound F-23] | < 3.74 |  |
| 83 |  | CCC(C)SSc1nccc(C)n1 (stereo not drawn) [Compound F-24] | < 3.74 |  |
